{"source": "patent US6399310B1", "about": "“Methods for improving the therapeutic response of humans having major depression and carrying the gene for apolipoprotein E4” (Akzo Nobel N.V., priority 2001, dated 2002)", "assay_type_in_all_cases": "in vivo, human", "key": {"[1]": {"tested_on": "patients 65 years of age and older with major depression", "assay": "Hamilton Depression Rating Scale (HDRS-17 / HDRS-21) in 8-week double-blind comparison of paroxetine and mirtazapine", "description": "Hamilton Depression Rating Scale (HDRS; 17 and 21 item versions of a structured interview) (Hamilton, M., J. Neurol. Neurosurg. Psychiatr. 23:56-62, 1960; Hamilton, M., Br. J. Soc. Clin. Psychol. 6:278-296, 1967). […] In other words, a lower rating in the HDRS scale signifies less depression. In contrast, HDRS remitters, which are those patients showing the least depression, are defined as subjects who have an HDRS-17 score of less than 7 at a post-baseline visit.\n(§1) All statistical analyses were performed using the SAS software package (available from SAS Institute). For clinical measures of depression (HDRS-21, HDRS-17, GDS, and CGI), analyses of covariance were performed with baseline values as the covariate, and apoE genotype (ε4 allele carrier vs. non-carrier) and medication (mirtazapine, paroxetine) as the predictors. For remitter and responder analyses of clinical measures of depression, Cochran-Mantel-Haenszel statistics were used. For comparison of medication and genotype groups on baseline demographic measures, two-way analyses of variance were used."}, "[2]": {"tested_on": "patients 65 years of age and older with major depression", "assay": "Clinical Global Impression Scale (CGI) in 8-week double-blind comparison", "settings": "day 14", "description": "Clinical Global Impression Scale (CGI) (Guy, W., ECDEU Assessment Manual for Psychopharmacology, DHEW Publication No. (ADM) 76-338, rev. 1976). The CGI scale is a global 7-point rating of the severity of the illness taking into account the preceding week (CGI-Severity) and a global 7-point rating of the clinical status of the subject since baseline (CGI-Change). A responder is defined as being “Much Improved” or “Very Much Improved” —having a CGI score of at least 2 according to CGI-Change. Thus, a higher CGI-Severity score corresponds to more severe depression whereas a higher CGI-Change score corresponds to lessened depression, or an improvement in alleviating the symptoms of depression.\nas §1"}, "[3]": {"tested_on": "patients 65 years of age and older with major depression", "assay": "Geriatric Depression Scale (GDS) in 8-week double-blind comparison", "experimental": "Geriatric Depression Scale (GDS) (Yesavage, J. A. et al., J. Psychiatr. Res. 17:37-49, 1983), a self-rating scale developed specifically for rating depression in the elderly. In the GDS, a lower rating signifies less depression. GDS 50% responders are defined as subjects with a decrease on a post-baseline assessment of at least 50% as compared to baseline.\nas §1"}, "[4]": {"settings": "day 14, Caucasian subjects, p=0.006"}}, "data": [{"smiles": "CN1CCN2c3ncccc3Cc3ccccc3C2C1", "note": "(stereo not shown) [mirtazapine, 1,2,3,4,10,14b-hexahydro-2-methylpyrazino[2,1-a]pyrido[2,3-c]benzazepine]", "values": [{"measurement": "HDRS-17 scores, mirtazapine-treated compared with paroxetine-treated patients", "setting": "[1]; day 7, full cohort", "value": "significantly greater improvement"}, {"measurement": "HDRS scores, ε4 carriers compared with noncarriers", "setting": "[1]; day 14, Caucasian subjects", "value": "greater improvement"}, {"measurement": "mean HDRS-17 scores, mirtazapine compared with paroxetine", "setting": "[1]; [4]", "value": "significantly lower"}, {"measurement": "mean HDRS-21 scores, mirtazapine compared with paroxetine", "setting": "[1]; [4]", "value": "significantly lower"}, {"measurement": "HDRS-17 scores, mirtazapine-treated compared with paroxetine-treated patients", "setting": "[1]; day 14, full cohort", "value": "Significantly greater improvement"}, {"measurement": "HDRS-21 scores, mirtazapine-treated compared with paroxetine-treated patients", "setting": "[1]; day 14, full cohort", "value": "Significantly greater improvement"}, {"measurement": "HDRS-17 50% responders, ε4 carriers compared with non-ε4 carriers", "setting": "[1]; day 14, full cohort, p=0.049", "value": "significantly more"}, {"measurement": "CGI scores, ε4 carriers compared with noncarriers", "setting": "[2]; Caucasian subjects", "value": "significantly better"}, {"measurement": "CGI scores, mirtazapine treated compared with paroxetine treated subjects", "setting": "[2]; Caucasian subjects, p=0.037", "value": "significantly better"}, {"measurement": "CGI scores, mirtazapine-treated compared with paroxetine-treated patients", "setting": "[2]; full cohort", "value": "Significantly greater improvement"}, {"measurement": "GDS scores, ε4 carriers compared with noncarriers", "setting": "[3]; day 14, Caucasian subjects", "value": "significantly lower"}, {"measurement": "GDS scores, effect of ε4 allele", "setting": "[3]; day 14, full cohort", "value": "large decrease in GDS scores"}]}, {"smiles": "Fc1ccc([C@@H]2CCNC[C@H]2COc2ccc3c(c2)OCO3)cc1", "note": "[paroxetine]", "values": [{"measurement": "HDRS scores, ε4 carriers compared with noncarriers", "setting": "[1]; day 14, Caucasian subjects", "value": "lees improvement"}, {"measurement": "CGI scores, ε4 carriers compared with noncarriers", "setting": "[2]; Caucasian subjects", "value": "no differences"}, {"measurement": "GDS scores, effect of ε4 allele", "setting": "[3]; day 14, full cohort", "value": "no significant difference"}, {"measurement": "50% reduction in GDS score, ε4 carriers compared with noncarriers", "setting": "[3]; day 28, full cohort", "value": "no effect of apoE genotype"}]}]}
